In patent US20130203069A1, “Dynamic Assay for Maintenance and Disruption of Tissue Level Organization and Architecture” (THE REGENTS OF THE UNIVERSITY OF CALIFORNIA, priority 2012, published 2013):

Key:
[1] = test system: HMEC strain 240L (LEPs and MEPs); test: Microwell self-organization assay; assay type: cell-based, human; details: for self-organization of LEPs and MEPs: actomyosin inhibitors (ML-7 3×10^−6 M, Y27632 10^−5 M) added at the beginning, refreshed every 24 h, over 48 h; for organization measured at 48 h: inhibitor added a single time after 24 h, when organization was already underway; for self-organization at the 24-h time point / differences in LEP:MEP ratios in the core and at the periphery by 48 h: inhibitor added a single time at 0 h; for differences in LEP:MEP ratios in the core and at the periphery by 48 h: P<0.01
Source text: Micropatterned substrata were made according to Tan et al. (2004) “Simple approach to micropattern cells on common culture substrates by tuning substrate wettability”. Tissue Eng 10:865-872, hereby incorporated by reference. Polydimethylsiloxane (PDMS) microwell arrays were formed by curing prepolymer with base:cure ratio of 10:1 (Sylguard 184) against a prepatterned master. The arrays of wells were peeled away and were cut into 1-cm^2 pieces that were affixed with a few microliters of uncured PDMS to the bottom of a 24-well plate (Mitek). Plates with microwells were UV oxidized for 7 min (UVO-Cleaner 42; Jelight Co.), blocked with 2 mg/mL BSA (Sigma) for 1 h under vacuum, and rinsed with PBS and M87A. All self-organizing experiments were conducted with HMEC strain 240L. Flow cytometry-sorted HMEC were stained with CM-DiI, SP-DiOC18 (Steinberg M S, (1962) On the mechanism of tissue reconstruction by dissociated cells. I. Population kinetics, differential adhesiveness, and the absence of directed migration. Proc Natl Acad Sci USA 48:1577-1582), or DiIC18(Wei C, et al., (2007) Self-organization and branching morphogenesis of primary salivary epithelial cells. Tissue Eng 13:721-735)-DS (Invitrogen), used at 1:1,000 in PBS for 5 min at 37° C. followed by 15 min at 4° C. Cells were washed extensively with medium after staining Dye-stained HMEC were mixed at a ratio of 1:1 (LEP:MEP) or 1:1 (randomly stained green:red HMEC cultures) and were resuspended in M87A at 1 million cells/mL. […] HMEC were imaged at 0, 24, or 48 h with a spinning disk confocal microscope (Carl Zeiss). Red and green fluorescence channels in images taken at the ˜25-μm z axis positions of 30 wells from each condition at each time point were binarized using the Threshold function, merged into a Z-stack, and then averaged using ImageJ software (National Institutes of Health). Gray-scaled average images corresponding to LEP and MEP were merged into a single image with red or green look-up tables applied to each average image.
Heat maps were generated. Briefly, heat maps were normalized to the highest intensity value and were used to quantify sorting using the expression log2(mean green pixel intensity/mean red pixel intensity). A script was written using MATLAB (Mathworks) to plot differential intensity as a function of the distance from the center and to compute the average plot from θ of 0-360° (Fig S2).

[2] = test system: MEPs; test: Atomic force microscopy measurement of stiffness (MEPs); assay type: cell-based, human; details: 45 cells per condition
Description: (§1) Once samples were equilibrated to 25° C., cell deformity was measured, and stiffness was calculated as previously described (Alcaraz J, et al., (2008) Laminin and biomimetic extracellular elasticity enhance functional differentiation in mammary epithelia. EMBO J 27:2829-2838.). The resulting data were plotted using Prism(GraphPad Software) (n=45).

[3] = test system: LEPs; test: Atomic force microscopy measurement of stiffness (LEPs); assay type: cell-based, human; details: 45 cells per condition
Description: as §1

[4] = test system: E-cadherin; test: E-cadherin surface expression on LEPs and MEPs by flow cytometry; assay type: cell-based, human; details: Y27632 10−5 M or ML-7 3×10−6 M in HMEC medium for 6 h
Description: E-cadherin expression on LEP and MEP was measured by addition of anti-E-cadherin-A647 (clone 67A4; Biolegend) to the above mixture at 1:50.
(§2) To determine effects of inhibitors, Y27632 at 10−5 M (Calbiochem) or ML-7 at 3×10−6 M (Calbiochem) was added to HMEC medium for 6 h at 37° C. (5% CO2) before trypsinization and subsequent measurement of E-cadherin by FACS. To measure the ability of recEcad to bind to HMEC in presence of inhibitors, cells were suspended in their medium in Falcon tubes (to prevent adhesion to a culture surface) in the presence of Y27632 at 10−5M (Calbiochem), ML-7 at 3×10−6M (Calbiochem), or anti-E-cadherin (100 μg/mL; clone HECD-1; Invitrogen), or in calcium-free medium for 6 h at 37° C. (5% CO2). recEcad conjugated to human IgG Fc region was added at 100 μg/mL for 1 h on ice. HMEC then were washed with medium and incubated with anti-human IgG-A633 (1:500; Invitrogen) in their own medium.

[5] = test system: HMEC cell surfaces; test: Recombinant E-cadherin (recEcad) binding to HMEC cell surfaces by flow cytometry; assay type: cell-based, human; details: 6 h pretreatment/preincubation of HMEC in suspension; recEcad 100 μg/mL 1 h on ice
Description: as §2

[6] = test system: mouse mammary organoids; details: time-lapse imaging studies; less catastrophic than in the HMEC microwell assay; cited from earlier work
[7] = test system: HCT116; details: HCT116 epithelial cell line (Sahai et al. 2002); cited from earlier work
[8] = test system: MDCK; details: MDCK epithelial cell line (Sahai et al. 2002); cited from earlier work

SMILES	self-organization of LEPs and MEPs [1]	organization measured at 48 h [1]	self-organization at the 24-h time point [1]	differences in LEP:MEP ratios in the core and at the periphery by 48 h [1]	MEP stiffness [2]	LEP stiffness [3]	lineage-specific differences in E-cadherin expression [4]	recEcad binding to HMEC surfaces [5]	bilayered organization of mouse mammary organoids [6]	breakdown and recycling of mature adherens junctions [7]	breakdown and recycling of mature adherens junctions [8]
O=S(=O)(c1cccc2c(I)cccc12)N1CCCNCC1 [ML-7]	prevented self-organization	obliterated organization	prevented self-organization	differences in LEP:MEP ratios in the core and at the periphery were observed	unaffected	caused softening	did not change	did not prevent	disrupted the clean bilayered organization	–	–
C[C@@H](N)[C@H]1CC[C@H](C(=O)Nc2ccncc2)CC1 [Y27632]	prevented self-organization	preserved the self-organized LEP cores	prevented self-organization	differences in LEP:MEP ratios in the core and at the periphery were observed	unaffected	caused softening	did not change	did not prevent	disrupted the clean bilayered organization	unable to break down and recycle	unable to break down and recycle
